From patent US7183100B2, “Aconitase” (priority 2003, dated 2007)

Experiments:
[1] = test system: PA01, FRD1 and mucoid clinical isolate strains (acnC or acnA disrupted); assay: Growth on propanediol as carbon source; format: cell-based, P. aeruginosa; conditions: all strains
Source text: (§1) In addition to PA01, an additional mucosal strain, FRD1 with gentamicin resistance was subjected to disruption of the acnC gene, as was a mucoid clinical isolate. For comparison, aconitase A was also similarly disrupted. All of the strains behaved similarly in respect to their ability to grow on propanediol in the presence and absence of propionic acid.

[2] = test system: acnC disrupted strain (PA01*); assay: Growth on various carbon sources; format: cell-based, P. aeruginosa; conditions: substance used as carbon source
Source text: (§2) When tested for growth on various carbon sources, no difference was observed when glucose, glutamate, citrate, isocitrate, succinate, acetate, pyruvate, butyrate, hexonate, or glyoxalate was used as a carbon source.

FRD1 [3] = assay: Reversal of propionate growth inhibition by TCA intermediates in M9 minimal media; format: cell-based, P. aeruginosa; conditions: 0.4% propionate
Method: This effect was tested by supplementing M9 minimal media with various TCA cycle components in the presence of 0.4% propionate.

FRD1 [4] = assay: Effect of ibuprofen on growth of FRD1 (absorbance at 600 nm); format: cell-based, P. aeruginosa; conditions: Pseudomonas aeruginosa, 2 ml LB cultures, read-out: percent inhibition of growth
Method: Ibuprofen is known to generate propionic acid when metabolized and was thus tested for its ability to inhibit the growth of FRD1. Other propionate-generating compounds include certain α4β1 integrin antagonists described by DuPlantier, A. J., et al., Bioorg. Med. Chem. Let. (2001) 11:2593–2596. Using absorbance at 600 nm as the criterion, growth inhibition was detected at a concentration of 0.5 mg/ml of ibuprofen added to 2 ml LB cultures; the percent inhibition at this level was 19%. Inhibition increased in a dose-dependent manner to 72% at 5 mg/ml, and was similar at 10 mg/ml (73%).

PA01 wildtype = assay: Growth on various carbon sources; format: cell-based, P. aeruginosa; conditions: substance used as carbon source
Source text: as §2

FRD1 [5] = assay: Effect of propionate on antibiotic susceptibility (antibiotic discs); format: cell-based, P. aeruginosa; conditions: 0.2% propionate
Method: (§3) The effect of various concentrations of propionate on the ability of antibiotics to curtail the growth of PA01 or FRD1 was tested. Levels of 0.2% propionate appeared to have no effect on PA01 growth in the presence of the antibiotics amikacin, carbenicillin, ciprofloxacin, tobramycin, and tetracycline. Growth was assured by the diameter of colonies formed in the presence of discs containing amikacin (AN-30), 30 μg, carbenicillin (CB-100), 100 μg, ciprofloxacin (CIP-5), 5 μg, tobramycin (NN-10), 10 μg, or tetracycline (TE-30), 30 μg.

PA01 [6] = assay: as above; format: cell-based, P. aeruginosa; conditions: 0.2% propionate; amikacin, carbenicillin, ciprofloxacin, tobramycin, tetracycline discs
Method: as §3

wildtype PA01 [7] = assay: Growth in LB medium with 0.4% propionate; format: cell-based, P. aeruginosa
Method: (§4) The effect of the addition of 0.4% propionate to LB medium containing wildtype PA01, PA01*, and the more sensitive mucoid strain FRD1, was also tested.

PA01* [8] = assay: Growth in LB medium with 0.4% propionate; format: cell-based, P. aeruginosa
Method: as §4

FRD1 [9] = assay: Growth in LB medium with 0.4% propionate; format: cell-based, P. aeruginosa
Method: as §4

PA01 [10] = assay: Attachment of cells to plastic tubes (absorbance at 570 nm); format: cell-based, P. aeruginosa; conditions: compared with FRD1
Method: (§5) As mucoid production is necessary for attachment, the effect on mucoid production of addition of propionate can be tested by assessing the level of attachment of the cells to plastic tubes. This was measured as the absorbance at 570 nm of plastic tubes.

FRD1 cells = assay: as above; format: cell-based, P. aeruginosa; conditions: as low as 0.1% propionate
Method: as §5

mucoid clinical isolates = assay: Effect of propionate on growth of mucoid clinical isolates; format: cell-based; conditions: low concentrations of propionate, FIG. 4, vs non-mucoid BH1 and revertant BAB
PA01* [11] = assay: Growth in TSBD plus 100 μM iron medium with propionate; format: cell-based, P. aeruginosa; conditions: 0.05% propionate, with and without 50 mM glutamate, FIG. 3
[12] = test system: FRD1 with disrupted aconitase C gene; assay: Growth on propanediol with added propionic acid; format: cell-based, P. aeruginosa; conditions: propanediol medium
Source text: as §1

[13] = test system: PA01 with disrupted aconitase C gene; assay: Growth on propanediol with added propionic acid; format: cell-based, P. aeruginosa; conditions: propanediol medium
Source text: as §1

wildtype PA01 [14] = assay: Propionate inhibition of growth; format: cell-based, P. aeruginosa; conditions: 0.4% propionate
Source text: (§6) FRD1 is much more susceptible to propionate inhibition than wildtype PA01. While PA01 is able to grow on 0.4% propionate, inhibition of FRD1 growth occurs at levels of 0.1% propionate and inhibition is complete as low as 0.2% propionate in the medium.

FRD1 [15] = assay: Propionate inhibition of growth; format: cell-based, P. aeruginosa; conditions: in the medium
Source text: as §6

`CC(O)CO` (stereo not drawn) [1,2-propanediol] was tested, and the “ability to grow on carbon source” value [1] was “able to grow”.

For `OCCCO` [1,3-propanediol], the “ability to grow on carbon source” value [1] was “less able to grow”.

In the case of `CC(=O)O` [acetate], the “difference in growth between wildtype and acnC disrupted strain” value (from here on “difference”) [2] is reported as “no difference” and the “reversal of negative effects of propionate on growth” value (shortened to “reversal”) (FRD1 [3]) is reported as “successful”.

In the case of `O=C(O)CC(O)(CC(=O)O)C(=O)O` [citrate], the “difference” value [2] is reported as “no difference”.

In the case of `N[C@@H](CCC(=O)O)C(=O)O` [glutamate], the “difference” value [2] is reported as “no difference” and the “reversal” value (FRD1 [3]) is reported as “successful”.

With `O=CC(=O)O` [glyoxalate] the “difference” value [2] was “no difference”.

`CCCCCC(=O)O` [hexanoate, hexanoic acid] was tested, and the “difference” value [2] was “no difference”.

Work on `CC(C)Cc1ccc(C(C)C(=O)O)cc1` (stereo not drawn) [ibuprofen, Ibuprofen] yielded an inhibition at 500 µg/mL (FRD1 [4]; 0.5 mg/ml) of 19%, an inhibition at 5000 µg/mL (FRD1 [4]; 5 mg/ml) of 72% and an inhibition at 10000 µg/mL (FRD1 [4]; 10 mg/ml) of 73%.

For `O=C(O)CC(O)C(=O)O` (stereo not drawn) [malate], the “reversal” value (FRD1 [3]) was “successful”.

For `CCCCC(=O)O` [pentanoate, pentanoic acid], the “growth of acnC disrupted strain on carbon source” value [2] was “did not grow” and the “growth of wildtype on carbon source” value (PA01 wildtype) was “grow well”.

In the case of `CCC(=O)O` [propionate, propionic acid], the “effect on growth inhibition by antibiotics” value (FRD1 [5]; CB-100 and CIP-5 discs) is reported as “diminish the effect”, the “effect on efficiency of antibiotics” value (FRD1 [5]; remaining antibiotics (amikacin, tobramycin, tetracycline)) is reported as “little, if any, effect” and the “effect on growth in the presence of antibiotics” value (PA01 [6]) is reported as “no effect”. The response of growth (wildtype PA01 [7]) was “does not respond”, the response of growth (PA01* [8]) was “diminished growth” and the response of growth (FRD1 [9]) was “diminished growth”. The “effect on attachment to plastic tubes” value (PA01 [10]) was “less dramatic”, the “effect on attachment to plastic tubes” value (FRD1 cells) was “diminish significantly” and the growth inhibition (mucoid clinical isolates) was “substantial growth inhibition”. For the same molecule, the “growth as compared to wildtype” value (PA01* [11]) was “growth is diminished”, the “ability to grow after addition of propionic acid” value [12] was “completely abolished” and the “ability to grow after addition of propionic acid” value [13] was “completely abolished”. For the same molecule, the “growth of acnC disrupted strain on carbon source” value [2] was “did not grow”, the “growth of wildtype on carbon source” value (PA01 wildtype) was “grow well” and the growth on propionate (wildtype PA01 [14]) was “able to grow”. For the same molecule, the “propionate level at which inhibition of growth is complete” value (FRD1 [15]) was 0.2% and the “propionate level at which inhibition of growth occurs” value (FRD1 [15]) was 0.1%.

With `O=C(O)CCC(=O)O` [succinate] the “difference” value [2] was “no difference”.
